In the supplement of paper PMC11281043:
± gives the standard deviation of the averaged measurements.

What was measured:
Conditions in all cases: exposure: 6-8 hpf to 5 dpf, scored at 6 dpf
[1] = tested on: Danio rerio embryo/larva; experiment: max % larvae with pigmentation defects across tested concentrations; higher = more toxic
[2] = tested on: Danio rerio embryo/larva; experiment: max % larvae with edema across tested concentrations; higher = more toxic; extreme values may be limits of the assay
[3] = tested on: Danio rerio embryo/larva; experiment: max % larvae with tail defects across tested concentrations; higher = more toxic; extreme values may be limits of the assay
[4] = tested on: Danio rerio embryo/larva; experiment: max % larvae with blood pooling across tested concentrations; higher = more toxic; extreme values may be limits of the assay
[5] = tested on: Danio rerio embryo/larva; experiment: max % larvae generally abnormal across tested concentrations; higher = more toxic; extreme values may be limits of the assay
[6] = tested on: Danio rerio embryo/larva; experiment: max % larvae with spinal defects across tested concentrations; higher = more toxic; extreme values may be limits of the assay
[7] = tested on: Danio rerio embryo/larva; experiment: max % larvae with abnormal position across tested concentrations; higher = more toxic; extreme values may be limits of the assay
[8] = tested on: Danio rerio embryo/larva; experiment: max % larvae with craniofacial defects across tested concentrations; higher = more toxic; extreme values may be limits of the assay
[9] = tested on: Danio rerio embryo/larva; experiment: max % larvae with uninflated swim bladder across tested concentrations; higher = more toxic; extreme values may be limits of the assay

SMILES | max % larvae [1] [%] | max % larvae [2] [%] | max % larvae [3] [%] | max % larvae [4] [%] | max % larvae generally abnormal across tested concentrations [5] [%] | max % larvae [6] [%] | max % larvae [7] [%] | max % larvae [8] [%] | max % larvae [9] [%]
O=P(O)(O)OCCC(F)(F)C(F)(F)C(F)(F)C(F)(F)C(F)(F)C(F)(F)F [6:2 Fluorotelomer phosphate monoester] (max tested concentration (log10 uM): 2) | 0 | 0 | 0 | 0 | 0 | 0 | 0 | 0 | 0
NC(=O)C(F)(F)C(F)(F)F [Pentafluoropropionamide] (max tested concentration (log10 uM): 2) | 0 | 0 | 0 | 0 | 0 | 0 | 0 | 0 | 0
FC(F)(F)C(F)(F)C(F)(F)C(F)(F)CCI [1H,1H,2H,2H-Perfluorohexyl iodide] (max tested concentration (log10 uM): 2) | 0 | 8.33 | 0 | 0 | 8.33 | 0 | 0 | 0 | 0
O=C(O)C(F)(F)C(F)(F)C(F)(F)C(F)(F)C(F)(F)C(F)(F)C(F)F [8H-Perfluorooctanoic acid] (max tested concentration (log10 uM): 2) | 0 | 0 | 4.17 | 0 | 8.33 | 0 | 0 | 0 | 16.7
O=S(=O)(O)C(F)(F)C(F)(F)C(F)(F)C(F)(F)C(F)(F)C(F)(F)F [Potassium perfluorohexanesulfonate] (max tested concentration (log10 uM): 2) | 0 | 44.4 | 0 | 16.7 | 55.6 | 0 | 19.4 | 33.3 | 77.8
NCC(F)(F)C(F)(F)C(F)(F)C(F)(F)C(F)(F)C(F)(F)C(F)(F)C(F)(F)F [1H,1H-Perfluorononylamine] (max tested concentration (log10 uM): 1.60206) | 0 | 50 | 0 | 50 | 75 | 0 | 25 | 50 | 50
O=C(O)C(F)(F)OC(F)(F)C(F)(F)OC(F)(F)C(=O)O [Perfluoro-3,6-dioxaoctane-1,8-dioic acid] (max tested concentration (log10 uM): 2) | 0 | 0 | 0 | 0 | 0 | 0 | 0 | 0 | 0
FC(F)(Br)C(F)(F)C(F)(F)C(F)(F)C(F)(F)C(F)(F)Br [1,6-Dibromododecafluorohexane] (max tested concentration (log10 uM): 2) | 0 | 4.17 | 0 | 0 | 4.17 | 0 | 0 | 0 | 0
OCCCC(F)(F)C(F)(F)C(F)(F)C(F)(F)C(F)(F)C(F)(F)C(F)(F)C(F)(F)F [3-(Perfluorooctyl)propanol] (max tested concentration (log10 uM): 2) | 0 | 0 | 0 | 0 | 0 | 0 | 0 | 0 | 0
CCCCCCCCC(F)(F)C(F)(F)C(F)(F)C(F)(F)C(F)(F)C(F)(F)F [1-(Perfluorohexyl)octane] (max tested concentration (log10 uM): 1.60206) | 0 | 0 | 0 | 0 | 0 | 0 | 0 | 0 | 0
C=CC(=O)OCC(F)(F)C(F)(F)C(F)(F)C(F)(F)C(F)(F)C(F)(F)C(F)(F)F [1H,1H-Perfluorooctyl acrylate] (max tested concentration (log10 uM): 2) | 0 | 0 | 0 | 0 | 0 | 0 | 0 | 0 | 0
O=C(O)CCC(F)(C(F)(F)F)C(F)(F)F [4,4-bis(Trifluoromethyl)-4-fluoropropanoic acid] (max tested concentration (log10 uM): 2) | 0 | 0 | 0 | 0 | 0 | 0 | 0 | 0 | 0
OCC(F)(F)C(F)(F)C(F)(F)C(F)(F)C(F)(F)C(F)F [1H,1H,7H-Dodecafluoro-1-heptanol] (max tested concentration (log10 uM): 2) | 0 | 8.33 | 0 | 0 | 8.33 | 0 | 0 | 0 | 0
O=C(O)C=CC(F)(C(F)(F)F)C(F)(F)F [3-(Perfluoroisopropyl)-2-propenoic acid] (max tested concentration (log10 uM): 2) | 0 | 16.7 | 8.33 | 16.7 | 16.7 | 8.33 | 8.33 | 16.7 | 16.7
O=C(O)C(F)(F)C(F)(F)C(F)(F)C(F)(F)C(F)(F)C(F)(F)C(F)(F)C(F)(F)C(F)(F)C(F)(F)C(F)(F)C(F)(F)C(F)(F)F [Perfluorotetradecanoic acid] (max tested concentration (log10 uM): 1.30103) | 0 | 0 | 0 | 0 | 2.27 | 0 | 0 | 0 | 4.55
O=C(O)C(F)(F)OC(F)(F)C(F)(F)OC(F)(F)C(F)(F)OC(F)(F)F [Perfluoro-3,6,9-trioxadecanoic acid] (max tested concentration (log10 uM): 2) | 0 | 45 | 30 | 40 | 70 | 20 | 25 | 40 | 100
C=CC(=O)OCC(F)(F)C(F)(F)C(F)(F)COC(=O)C=C [1H,1H,5H,5H-Perfluoro-1,5-pentanediol diacrylate] (max tested concentration (log10 uM): 1) | 0 | 33.3 | 25 | 0 | 33.3 | 8.33 | 0 | 33.3 | 16.7
O=C(CC(=O)C(F)(F)C(F)(F)C(F)(F)F)c1cccs1 [(Perfluorobutyryl)-2-thenoylmethane] (max tested concentration (log10 uM): 0.477121) | 0 | 8.33 | 0 | 0 | 8.33 | 0 | 0 | 8.33 | 16.7
OCC(F)(F)C(F)(F)C(F)(F)C(F)(F)C(F)(F)C(F)(F)C(F)(F)C(F)(F)C(F)(F)C(F)(F)C(F)(F)F [11:1 Fluorotelomer alcohol] (max tested concentration (log10 uM): 1.30103) | 0 | 0 | 0 | 0 | 0 | 0 | 0 | 0 | 0
OCC(F)(F)C(F)(F)C(F)(F)C(F)F [1H,1H,5H-Perfluoropentanol] (max tested concentration (log10 uM): 2) | 0 | 0 | 0 | 0 | 0 | 0 | 0 | 0 | 0
NCC(F)(F)C(F)(F)C(F)(F)C(F)(F)C(F)(F)C(F)(F)C(F)(F)F [1H,1H-Perfluorooctylamine] (max tested concentration (log10 uM): 2) | 0 | 22.5 ± 32 | 0 | 0 | 20 ± 28 | 0 | 0 | 15 ± 21 | 20 ± 28
O=C(CC(=O)C(F)(F)F)C(F)(F)F [1,1,1,5,5,5-Hexafluoro-2,4-pentanedione] (max tested concentration (log10 uM): 2) | 0 | 0 | 0 | 0 | 0 | 0 | 0 | 0 | 0
O=C(O)C(F)(F)C(F)(F)C(F)(F)C(F)(F)C(F)(F)C(F)(F)F [Perfluoroheptanoic acid] (max tested concentration (log10 uM): 2) | 0 | 8.33 | 0 | 0 | 8.33 | 0 | 0 | 0 | 16.7
C=C(C)C(=O)OCC(F)(F)C(F)(F)C(F)(F)C(F)F [1H,1H,5H-Perfluoropentyl methacrylate] (max tested concentration (log10 uM): 2) | 0 | 25 | 16.7 | 0 | 25 | 4.17 | 0 | 16.7 | 33.3
